Experimental data published in patent US5824647A, “Chemotactic wound healing peptides” (priority 1995, dated 1998).

Experiments:
[1] = system: infant foreskin fibroblasts; assay: Fibroblast chemotaxis in modified Boyden chambers (incl. checkerboard and deactivation studies); format: cell-based, human; conditions: for fibroblast chemotaxis / migration (in words): peptide in lower compartment of modified Boyden chamber; for Mean Fibroblasts per 20 OIF + SEM: Experiment 1, lower compartment: TGF-β1 50 pg/ml, peptide 368-374 1.4 × 10^-5 M, peptide 364-378 6.7 × 10^-7 M, fibronectin 20 μg/ml
Description: Target cells used in in vitro chemotaxis assays were infant foreskin fibroblasts obtained by establishing monolayer cultures from explants of tissue. Cells were maintained in Eagle's minimum essential medium (MEM) supplemented with non-essential amino acids, antibiotics, 50 ug/ml ascorbic acid, and 9% fetal calf serum (FCS). Cells were passaged by trypsinization every 3-5 days.
Infant foreskin fibroblasts were harvested from monolayer culture by gentle trypsinization, washed twice in serum-free Eagles's MEM and adjusted to a final concentration of 250,000 cells/ml. The cell suspension (0.4 ml) was added to the upper compartments of blind well modified Boyden chemotaxis chambers. The peptides of the invention being assayed for chemotactic activity were solubilized in glycylglycine (0.015M) buffered NaCl (0.14M), pH 7.2, hereinafter referred to as GGBS, and diluted 50% with serum-free MEM. Test substances were added to the lower compartment of the chemotaxis chambers. Gelatin-treated polycarbonate filters (8 micron pore size) were interposed between the lowest compartment and the upper cell compartment. Loaded chambers were incubated at 37° C. in a humidified atmosphere containing 5% CO2 for 150 minutes. After incubation, the chambers were disassembled, the filters removed, stained with hematoxylin, and mounted on glass cover slips. Fibroblast chemotaxis was quantitated by counting the number of fibroblasts in 20 oil immersion fields (OIF) that migrated and adhered to the lower surface of each filter. Samples were tested in quadruplicate and results are expressed as mean number of fibroblasts per 20 OIF±standard error of the mean (SEM). Chemotaxis neutralization studies were performed by adding TGF-β1 or fibronectin to the upper cell compartment and testing for effects on fibroblast migration to the TGF-β peptides.
Zigmond-Hirsch checkerboard analysis (Zigmond & Hirsch, J. Exptl. Med. 137:387, 1972) was performed to determine whether the 7-mer peptide 368-374 (Val Tyr Tyr Val Gly Arg Lys) induced chemotaxis of fibroblasts, monocytes and neutrophils.
Deactivation studies were utilized to determine whether the peptides of the invention containing the 7-mer peptide amino acid sequence induced chemotaxis via cellular receptors and mechanisms utilized by intact TGF-β.

[2] = system: human peripheral blood monocytes; assay: Monocyte chemotaxis in modified Boyden chambers; format: cell-based; conditions: peptide in lower compartment of modified Boyden chamber
Source text: (§1) Human peripheral blood neutrophils and monocytes, isolated from whole blood using standard techniques may also be used in the chemotaxis assays, in a manner similar to infant foreskin fibroblasts, to measure the chemotactic activity of the peptides towards inflammatory cells. Such cells may also be maintained in supplemented MEM as above, to which 5-10% FCS may be added. When using neutrophils and monocytes, instead of fibroblasts, the polycarbonate filters used in the modified Boyden chambers had pore sizes of 2 and 3 microns, respectively. As above, all assays were carried out in quadruplicate.
The following 7-mer peptides (peptides 368-374, corresponding to amino acids 368-374 of human TGF-β1): VYYVGRK (SEQ ID NO. 1), LYYIGKT (SEQ ID NO. 2), LYYVGRT (SEQ ID NO. 3), IYYVGRN (SEQ ID NO. 4) and IYYVGRT (SEQ ID NO. 5) were synthesized by the Merrifield technique, purified by HPLC, and tested at different concentrations in the same assay for their ability to stimulate chemotaxis of human peripheral blood monocytes in vitro modified Boyden chambers.

[3] = system: Human peripheral blood neutrophils; assay: Neutrophil chemotaxis in modified Boyden chambers; format: cell-based; conditions: peptide in lower compartment of modified Boyden chamber
Source text: as §1

[4] = system: infant foreskin fibroblasts; assay: Collagen production by fibroblasts (modified Peterofsky-Diegelman assay); format: cell-based, human; conditions: [3H]proline incorporation into collagenase-sensitive protein
Description: The peptides of the invention were also found to stimulate collagen production by fibroblasts. Collagen production by fibroblasts in response to the peptides of the present invention was measured utilizing a modified Peterofsky-Diegelman assay. The assay is used to determine whether the peptides of the invention stimulate or inhibit collagen production by fibroblasts.
Low passage (4-12 subpassages) infant foreskin fibroblasts were plated out at a density of 10^5 cells/well in Falcon 3008 multiwell plates in complete maintenance medium containing 10% FCS. After cells reached confluency (72 hr), the medium was changed daily for 3 days, each time being replaced with serum-free maintenance medium containing fresh ascorbic acid. Samples (50 μl) were added to triplicate wells containing 450 μl serum-free MEM supplemented with fresh ascorbic acid and [^3 H]-proline (sp. act. 20 Ci/mmole), but no non-essential amino acids. After an additional 24 hr of culture, supernatants were reacted with protease-free bacterial collagenase to digest all collagen. Similar aliquots of unreacted supernatants and bacterial collagenase-treated supernatants were precipitated with cold 10% trichloroacetic acid (TCA) and were centrifuged for 5 minutes in a Beckman microfuge. Aliquots of the supernatants, after TCA precipitated proteins were pelleted, were placed in vials containing Hydrofluor and then were counted in a scintillation counter. CPM from TCA precipitated supernatants not reacted with bacterial collagenase were subtracted from each culture. The resulting CPM was a reflection of the collagen produced by that culture.
A modified Peterofsky-Diegelmann assay was used to screen peptide samples for their ability to stimulate or inhibit collagen production. Low passage (4-12 subpassages) infant foreskin fibroblast were plated out at a density of 10^5 cells/well of Falcon 3008 multiwell plates in complete maintenance medium containing 10% FCS. After cells reached confluency (72 hr) the medium was changed daily for 3 days, each time being replaced with serum-free maintenance medium containing fresh ascorbic acid. Samples ([…]) were added to triplicate wells containing […] serum free MEM supplemented with fresh ascorbic acid and [^3 H]-proline (sp. act. 20 Ci/mmole), but no non-essential amino acids. After an additional 24 hours of culture, supernatants were reacted with protease-free bacterial collagenase to digest all collagen. Similar aliquots of unreacted supernatants and bacterial collagenase-treated supernatants were precipitated with cold 10% trichloroacetic acid (TCA) and were centrifuged for 5 minutes in a Beckman microfuge. Aliquots of the supernatants, after TCA precipitated proteins were pelleted, were placed in vials containing Hydrofluor and then were counted in a scintillation counter. CPM from TCA precipitated supernatants not reacted with bacterial collagenase were subtracted from each culture. The resulting CPM was a reflection of the collagen produced by that culture.
Collagen production was measured following administration of the various 7-mer peptides 368-374 (SEQ ID NOs. 1-5) to fibroblasts. Peptides […] (SEQ ID NO. 1), LYYIGKT (SEQ ID NO. 2), LYYVGRT (SEQ ID NO. 3), IYYVGRN (SEQ ID NO. 4) and IYYVGRT (SEQ ID NO. 5) were synthesized by the Merrifield technique, purified by HPLC, and tested at different concentrations in the same assay for their ability to stimulate production of collagen in confluent cultures of infant foreskin fibroblasts. Collagen production was measured by incorporation of [^3 H]proline into collagenase-sensitive protein. All samples were tested in triplicate, and values represent the mean of triplicate determinations. Data are expressed as "% stimulation" of collagen production relative to control production in cultures with plain culture medium only added. […]

[5] = Media added to upper compartment
[6] = TGF-β1 (50 pg/ml) added to upper compartment

Substance | fibroblast chemotaxis / migration (in words) [1] | monocyte chemotaxis / migration (in words) [2] | neutrophil chemotaxis / migration (in words) [3] | Mean Fibroblasts per 20 OIF + SEM [1, 5] [Fibroblasts per 20 OIF] | Mean Fibroblasts per 20 OIF + SEM [1, 6] [Fibroblasts per 20 OIF] | collagen production by fibroblasts (in words) [4]
280-293: peptide derived from the N-terminal half of TGF-β1, residues 280-293 (ALDTNYCFSSTEKN; printed: Ala Leu Asp Thr Asn Tyr Cys Phe Ser Ser Thr Glu Lys Asn) [Peptide 280-293] | none of the peptides derived from the N-terminal half of TGF-β1 (peptides 280-293, 296-322 and 328-354) were able to induce migration | none of the peptides derived from the N-terminal half of TGF-β1 (peptides 280-293, 296-322 and 328-354) were able to induce migration | none of the peptides derived from the N-terminal half of TGF-β1 (peptides 280-293, 296-322 and 328-354) were able to induce migration | – | – | –
296-322: peptide derived from the N-terminal half of TGF-β1, residues 296-322 (VRQLYIDFRKDLGWKWIHEPKGYHANF; printed: Val Arg Gln Leu Tyr Ile Asp Phe Arg Lys Asp Leu Gly Trp Lys Trp Ile His Glu Pro Lys Gly Tyr His Ala Asn Phe) [Peptide 296-322] | none of the peptides derived from the N-terminal half of TGF-β1 (peptides 280-293, 296-322 and 328-354) were able to induce migration | none of the peptides derived from the N-terminal half of TGF-β1 (peptides 280-293, 296-322 and 328-354) were able to induce migration | none of the peptides derived from the N-terminal half of TGF-β1 (peptides 280-293, 296-322 and 328-354) were able to induce migration | – | – | –
328-354: peptide derived from the N-terminal half of TGF-β1, residues 328-354 (PYIWSLDTQYSKVLALYNQHNPGASAA; printed: Pro Tyr Ile Trp Ser Leu Asp Thr Gln Tyr Ser Lys Val Leu Ala Leu Tyr Asn Gln His Asn Pro Gly Ala Ser Ala Ala) [Peptide 328-354] | none of the peptides derived from the N-terminal half of TGF-β1 (peptides 280-293, 296-322 and 328-354) were able to induce migration | none of the peptides derived from the N-terminal half of TGF-β1 (peptides 280-293, 296-322 and 328-354) were able to induce migration | none of the peptides derived from the N-terminal half of TGF-β1 (peptides 280-293, 296-322 and 328-354) were able to induce migration | – | – | –
Fibronectin [reference compound] | – | – | – | 74 ± 2 | 71 ± 6 | –
IYYVGRN [7-mer peptide 368-374 homolog] | induced fibroblast chemotaxis at all of the concentration tested | induced monocyte chemotaxis at all of the concentrations tested | – | – | – | stimulated collagen production to some degree
IYYVGRT [7-mer peptide 368-374 homolog] | induced fibroblast chemotaxis at all of the concentration tested | induced monocyte chemotaxis at all of the concentrations tested | – | – | – | stimulated collagen production to some degree
LYYVGRT [7-mer peptide 368-374 homolog] | induced fibroblast chemotaxis at all of the concentration tested | induced monocyte chemotaxis at all of the concentrations tested | – | – | – | stimulated collagen production to some degree
PIVYYVGRKPKVEQLSNMIVRS (PIVYYVGRKPKVEQLSNMIVRS) [Peptide 366-387] | induced migration of fibroblasts, monocytes and neutrophils in a dose dependent fashion | induced migration of fibroblasts, monocytes and neutrophils in a dose dependent fashion | induced migration of fibroblasts, monocytes and neutrophils in a dose dependent fashion | – | – | –
TGF-β1: transforming growth factor β1, 50 pg/ml, chemoattractant control and deactivating agent [reference compound] | – | – | – | 7 ± 1 | 21 ± 2 | –
VPQALEPLPIVYYVGRKPKVEQLSN (VPQALEPLPIVYYVGRKPKVEQLSN) [Peptide 358-382] | induced migration of fibroblasts, monocytes and neutrophils in a dose dependent fashion | induced migration of fibroblasts, monocytes and neutrophils in a dose dependent fashion | induced migration of fibroblasts, monocytes and neutrophils in a dose dependent fashion | – | – | –
VSQDLEPLTILYYIGKTPKIEQLSNMIVKSC | – | – | – | – | – | stimulated collagen production
